In brackets after ≈: the same amount, converted by molar mass. Activity calls are given as the source filed them. The rule behind the calls is not given here.
Columns and labels:
[1] = Acute toxicity in female BALB/c mouse assessed as abnormal behaviour at 800 mg/kg, po measured after 14 days; type: organism-based; details: in vivo, 336 h, time 14 day
[2] = AUC (0 to t) in female Sprague-Dawley rat at 5 mg/kg, iv measured upto 24 hrs by LC-MS analysis; type: ADME, organism-based; details: in vivo
Staphylococcus aureus [3] = test: Bactericidal activity against […] Staphylococcus aureus ATCC33591 assessed as log reduction in bacterial count at 2 times MIC measured within 8 to 12 hrs by time-kill assay; type: functional; details: time 8-12 hrs
Staphylococcus aureus [4] = test: Antimicrobial activity against […] Staphylococcus aureus ATCC33591 measured after 24 hrs by CLSI protocol based microdilution method; type: functional
[5] = Acute toxicity in female BALB/c mouse assessed as effect on heart at 800 mg/kg, po measured after 14 days by H and E staining based analysis; type: organism-based; details: in vivo, 336 h, time 14 day
Cell membrane [6] = test: Induction of cell membrane damage in methicillin-resistant Staphylococcus aureus ATCC33591 assessed as increase in red fluorescence at 1 times MIC measured after 30 mins by […] analysis; type: cell membranes
[7] = Clearance in female Sprague-Dawley rat at 20 mg/kg, po measured upto 24 hrs by LC-MS analysis; type: ADME, organism-based; details: in vivo
Escherichia coli = test: Antimicrobial activity against Escherichia coli ATCC25922 measured after 24 hrs by CLSI protocol based microdilution method; type: functional
[8] = Metabolic stability in mouse liver microsomes assessed as half life at 1 uM measured upto 120 mins in presence of NADPH by LC-MS analysis; type: ADME, Microsome
Cell membrane [9] = test: Induction of cell membrane permeability in methicillin-resistant Staphylococcus aureus ATCC33591 assessed as fold increase in fluorescence intensity at 0.5 times MIC measured after 30 mins by Annexin V-FITC staining based analysis; type: cell membranes
[10] = Clearance in female Sprague-Dawley rat at 5 mg/kg, iv measured upto 24 hrs by LC-MS analysis; type: ADME, organism-based; details: in vivo
[11] = Acute toxicity in female BALB/c mouse assessed as effect on liver at 800 mg/kg, po measured after 14 days by H and E staining based analysis; type: organism-based; details: in vivo, 336 h, time 14 day
Cell membrane [12] = test: Induction of cell membrane permeability in methicillin-resistant Staphylococcus aureus ATCC33591 assessed as fold increase in fluorescence intensity at 1 times MIC measured after 30 mins by 7-AAD staining based analysis; type: cell membranes
Staphylococcus aureus [13] = test: Antimicrobial activity against Staphylococcus aureus measured after 24 hrs by CLSI protocol based microdilution method; type: functional
Staphylococcus aureus [14] = test: Antimicrobial activity against Staphylococcus aureus RN4220 harbouring pCM-sfgfp measured after 24 hrs by CLSI protocol based microdilution method; type: functional
[15] = Acute toxicity in female BALB/c mouse assessed as effect on CREA level in serum at 800 mg/kg, po measured after 14 days; type: organism-based; details: in vivo, 336 h, time 14 day
[16] = Cytotoxicity against HEK293 cells assessed as survival rate at 400 uM measured after 48 hrs by CCK-8 method relative to control; type: toxicity, cell-based; details: human, read-out: Survival
[17] = Tmax in female Sprague-Dawley rat at 20 mg/kg, po measured upto 24 hrs by LC-MS analysis; type: ADME, organism-based; details: in vivo
Acinetobacter baumannii = test: Antimicrobial activity against Acinetobacter baumannii ATCC19606 measured after 24 hrs by CLSI protocol based microdilution method; type: functional
Cell membrane [18] = test: Induction of cell membrane damage in methicillin-resistant Staphylococcus aureus ATCC33591 assessed as outflow of cytoplasmic content at 1 times MIC measured after 30 mins by TEM analysis; type: cell membranes
Cell membrane [19] = test: Induction of cell membrane permeability in methicillin-resistant Staphylococcus aureus ATCC33591 assessed as increase in fluorescence measured after 30 mins by Annexin V-FITC staining based analysis; type: cell membranes
[20] = Oral bioavailability in female Sprague-Dawley rat at 20 mg/kg measured upto 24 hrs by LC-MS analysis; type: ADME, organism-based; details: in vivo
Enterococcus faecalis = test: Antimicrobial activity against Enterococcus faecalis ATCC29212 measured after 24 hrs by CLSI protocol based microdilution method; type: functional
[21] = Acute toxicity in female BALB/c mouse assessed as effect on ALT level in serum at 800 mg/kg, po measured after 14 days; type: organism-based; details: in vivo, 336 h, time 14 day
[22] = Cmax in female Sprague-Dawley rat at 20 mg/kg, po measured upto 24 hrs by LC-MS analysis; type: ADME, organism-based; details: in vivo
[23] = Metabolic stability in human liver microsomes assessed as half life at 1 uM measured upto 120 mins in presence of NADPH by LC-MS analysis; type: ADME, Microsome
[24] = Acute toxicity in female BALB/c mouse assessed as effect on ALB level in serum at 800 mg/kg, po measured after 14 days; type: organism-based; details: in vivo, 336 h, time 14 day
[25] = Inhibition of N-terminal his 6 tagged Acinetobacter baumannii Fabi (1 to 804 residues) expressed in Escherichia coli BL21 incubated for 30 mins in presence of NADH by fluorescence based microplate reader analysis
HepG2 = test: Cytotoxicity against human HepG2 cells assessed as survival rate at 400 uM measured after 48 hrs by CCK-8 method relative to control; type: functional; details: read-out: Survival
Cell membrane [26] = test: Induction of cell membrane permeability in methicillin-resistant Staphylococcus aureus ATCC33591 assessed as fold increase in fluorescence intensity at 0.25 times MIC measured after 30 mins by Annexin V-FITC staining based analysis; type: cell membranes
[27] = Metabolic stability in mouse liver microsomes assessed as intrinsic clearance at 1 uM measured upto 120 mins in presence of NADPH by LC-MS analysis; type: ADME, Microsome; details: read-out: CLH
[28] = Hemolytic activity in sheep erythrocytes assessed as hemolysis at 128 ug/ml incubated for 1 hr by microplate reader based analysis relative to control; type: toxicity, cell-based, Ovis aries, Erythrocyte; details: at 128 µg/mL, read-out: Activity
Enterococcus faecium = test: Antimicrobial activity against Enterococcus faecium ATCC19434 measured after 24 hrs by CLSI protocol based microdilution method; type: functional
[29] = Acute toxicity in female BALB/c mouse assessed as effect on spleen at 800 mg/kg, po measured after 14 days by H and E staining based analysis; type: organism-based; details: in vivo, 336 h, time 14 day
[30] = Half life in female Sprague-Dawley rat at 20 mg/kg, po measured upto 24 hrs by LC-MS analysis; type: ADME, organism-based; details: in vivo
[31] = Half life in female Sprague-Dawley rat at 5 mg/kg, iv measured upto 24 hrs by LC-MS analysis; type: ADME, organism-based; details: in vivo
Staphylococcus aureus [32] = test: Antimicrobial activity against Staphylococcus aureus RN4220 harbouring pCM-sfgfp::fabi (promoter fabi) measured after 24 hrs by CLSI protocol based microdilution method; type: functional
[33] = Drug concentration in BALB/c mouse plasma at 400 mg/kg, po measured after 1 hr by LC-MS analysis; type: ADME, organism-based
Staphylococcus aureus [34] = test: Antimicrobial activity against Staphylococcus aureus RN4220 harbouring pCM-sfgfp::fabi (promoter-sarA) measured after 24 hrs by CLSI protocol based microdilution method; type: functional
Candida albicans = test: Antimicrobial activity against Candida albicans SC5314 measured after 48 hrs by CLSI protocol based microdilution method; type: functional
[35] = Hemolytic activity in sheep erythrocytes assessed as hemolysis incubated for 1 hr by microplate reader based analysis; type: toxicity, cell-based, Ovis aries, Erythrocyte
Staphylococcus aureus [36] = test: Antimicrobial activity against wild type Staphylococcus aureus RN4220 measured after 24 hrs by CLSI protocol based microdilution method; type: functional

COc1c(Br)cccc1N1CC(c2nc3ccccc3n2C)CC1=O (centres undefined)
Activity [1]: Non-Toxic | AUCt [2]: 2.2644 µg·h/mL | log(activity) (Staphylococcus aureus [3]): 2.3 | MIC (Staphylococcus aureus [4]): 1 mg/L (≈ 2.5 µM) | Activity [5]: Non-Toxic | Activity (Cell membrane [6]): Active | CL/F [7]: 5.2 L/h/kg | MIC (Escherichia coli): > 32 mg/L | half-life at 1 µM [8]: 13.2 min | fold change (FC) (Cell membrane [9]): 1.9 | clearance [10]: 2.2 L/h/kg | Activity [11]: Non-Toxic | fold change (FC) (Cell membrane [12]): 1.8 | MIC (Staphylococcus aureus [13]): 1 mg/L (≈ 2.5 µM) | MIC (Staphylococcus aureus [14]): 2 mg/L (≈ 5 µM) | Activity [15]: Non-Toxic | viability at 48 h, 400 µM [16]: > 70% | Tmax [17]: 30 min | MIC (Acinetobacter baumannii): > 32 mg/L | Activity (Cell membrane [18]): Active | Activity (Cell membrane [19]): Active | bioavailability [20]: 34.5% | MIC (Enterococcus faecalis): > 32 mg/L | Activity [21]: Non-Toxic | Cmax [22]: 1.27 µg/mL | half-life at 1 µM [23]: 38.3 min | Activity [24]: Non-Toxic | IC50 [25]: 0.266 µM | viability at 400 µM (HepG2): > 70% | fold change (FC) (Cell membrane [26]): 1.4 | CLint scaled at 1 µM [27]: 24.9 L/h/kg | hemolysis at 1 h, 128 ug/ml [28]: 3.4% | MIC (Enterococcus faecium): > 32 mg/L | Activity [29]: Non-Toxic | t1/2 [30]: 558 min | t1/2 [31]: 66 min | MIC (Staphylococcus aureus [32]): 32 mg/L (≈ 79.9 µM) | concentration at 1 h [33]: 18.1 µg/mL | MIC (Staphylococcus aureus [34]): > 32 mg/L | MIC (Candida albicans): > 32 mg/L | HC50 at 1 h [35]: > 256 µg/mL | MIC (Staphylococcus aureus [36]): 2 mg/L (≈ 5 µM)

Cc1c(Br)cccc1N1CC(c2nc3ccccc3n2C)CC1=O (centres undefined)
Activity [1]: Non-Toxic | AUCt [2]: 3.2388 µg·h/mL | log(activity) (Staphylococcus aureus [3]): 3.2 | MIC (Staphylococcus aureus [4]): 1 mg/L (≈ 2.6 µM) | Activity [5]: Non-Toxic | Activity (Cell membrane [6]): Active | CL/F [7]: 1.6 L/h/kg | MIC (Escherichia coli): > 32 mg/L | half-life at 1 µM [8]: 27.7 min | fold change (FC) (Cell membrane [9]): 2.1 | clearance [10]: 1.6 L/h/kg | Activity [11]: Non-Toxic | fold change (FC) (Cell membrane [12]): 1.9 | MIC (Staphylococcus aureus [13]): 1 mg/L (≈ 2.6 µM) | MIC (Staphylococcus aureus [14]): 2 mg/L (≈ 5.2 µM) | Activity [15]: Non-Toxic | viability at 48 h, 400 µM [16]: > 70% | Tmax [17]: 60 min | MIC (Acinetobacter baumannii): > 32 mg/L | Activity (Cell membrane [18]): Active | Activity (Cell membrane [19]): Active | bioavailability [20]: 86.1% | MIC (Enterococcus faecalis): > 32 mg/L | Activity [21]: Non-Toxic | Cmax [22]: 1.52 µg/mL | half-life at 1 µM [23]: 63.6 min | Activity [24]: Non-Toxic | IC50 [25]: 0.266 µM | viability at 400 µM (HepG2): > 70% | fold change (FC) (Cell membrane [26]): 1.3 | CLint scaled at 1 µM [27]: 11.8 L/h/kg | hemolysis at 1 h, 128 ug/ml [28]: 5% | MIC (Enterococcus faecium): > 32 mg/L | Activity [29]: Non-Toxic | t1/2 [30]: 522 min | t1/2 [31]: 66 min | MIC (Staphylococcus aureus [32]): 32 mg/L (≈ 83.3 µM) | concentration at 1 h [33]: 24 µg/mL | MIC (Staphylococcus aureus [34]): > 32 mg/L | MIC (Candida albicans): > 32 mg/L | HC50 at 1 h [35]: > 256 µg/mL | MIC (Staphylococcus aureus [36]): 2 mg/L (≈ 5.2 µM)

— ChEMBL document CHEMBL5500393, “Discovery and Optimization of Novel SaFabI Inhibitors as Specific Therapeutic Agents for MRSA Infection” (J Med Chem, 2024)
